Measurements: US8785399B2, “Antibacterial peptides” (Spiderbiotech S.R.A., priority 2008, dated 2014)
Converted amounts (≈) assume the structure as drawn. Positions of bridges follow the written chain, without caps; N, C: chain ends. Non-standard residues stand in square brackets, D forms with d. Residues, ends and D or L forms follow the SMILES beside them. Chains are numbered I, II in the order given. Aoc = NCCCCCCCC(=O)O; Ava = NCCCCC(=O)O; βAla = NCCC(=O)O

Key:
[1] = system: E. coli ATCC 25922; assay: MIC by broth microdilution, E. coli reference strain; type: cell-based, Escherichia coli; conditions: ATCC 25922
Procedure: (§1) Determination of MIC. MICs were determined in MHB by the broth microdilution methodology, according to CLSI procedure (formerly NCCLS, Ref. 11) by using final bacterial inocula of 1-5×10^5 CFU/mL. Assays were performed in sterile 96-well microtiter plates with round bottom wells (Corning Costar). Plates were incubated at 37° C. and read after 20-24 h. MIC was defined as the lowest drug concentration causing complete suppression of visible bacterial growth. All compounds were dissolved in (5% v/v DMSO).
All natural aminoacids have been divided into three groups based on their chemical-physical properties. A total amount of 27 minilibraries, each one containing six peptide in equimolar amounts, were obtained and assayed against E. coli ATCC 25922 as reference strain. MIC (Minimum Inhibitory Concentration) is defined as the lowest concentration inhibiting 100% of visible growth.

[2] = system: Pseudomonas aeruginosa ATCC 27853; assay: MIC by broth microdilution, P. aeruginosa reference strain; type: cell-based; conditions: ATCC 27853
Procedure: as §1
(§2) These peptides were synthesized individually, in order to assay the activity of each sequence.

[3] = system: Klebsiella pneumoniae ATCC 10031; assay: MIC by broth microdilution, K. pneumoniae reference strain; type: cell-based; conditions: ATCC 10031
Procedure: as §1, §2

[4] = system: Staphylococcus aureus ATCC 25923
Procedure: as §1, §2

Molecule	MIC (ug/mL) E. coli [1] [µg/mL]	MIC (ug/mL) P. aeruginosa [2] [µg/mL]	MIC (ug/mL) K. pneumoniae [3] [µg/mL]	MIC (ug/mL) S. aureus [4] [µg/mL]
CC[C@H](C)[C@H](NC(=O)[C@H](CCCCN)NC(=O)[C@H](CCCCN)NC(=O)[C@H](Cc1c[nH]c2ccccc12)NC(=O)CCCCCCCN)C(=O)N[C@@H](CCCNC(=N)N)C(=O)N[C@H](C(=O)N[C@@H](CCCNC(=N)N)C(=O)N[C@@H](CC(C)C)C(=O)N[C@@H](CO)C(=O)N[C@@H](C)C(N)=O)C(C)C [ID15, H-8-Aoa-W-KKIRVRLSA-NH2] (H-[Aoc]WKKIRVRLSA-NH2)	32 (≈ 22.9 µM)	>64	>64	–
CC[C@H](C)[C@H](NC(=O)[C@H](CCCCN)NC(=O)[C@H](Cc1c[nH]c2ccccc12)NC(=O)[C@H](CCC(N)=O)NC(=O)CCCCCCCN)C(=O)N[C@@H](CCCNC(=N)N)C(=O)N[C@H](C(=O)N[C@@H](CCCNC(=N)N)C(=O)N[C@@H](CC(C)C)C(=O)N[C@@H](CO)C(=O)N[C@@H](C)C(N)=O)C(C)C [ID16, H-8-Aoa-Q-W-KIRVRLSA-NH2] (H-[Aoc]QWKIRVRLSA-NH2)	32 (≈ 22.9 µM)	>64	>64	–
CC[C@H](C)[C@H](NC(=O)[C@H](CCCCN)NC(=O)[C@H](CCCCN)NC(=O)[C@H](CCC(N)=O)NC(=O)CCCCCCCN)C(=O)N[C@@H](CCCNC(=N)N)C(=O)N[C@H](C(=O)N[C@@H](CCCNC(=N)N)C(=O)N[C@@H](CC(C)C)C(=O)N[C@@H](CO)C(=O)N[C@@H](C)C(N)=O)C(C)C [ID17, H-8-Aoa-QKKIRVRLSA-NH2] (H-[Aoc]QKKIRVRLSA-NH2)	64 (≈ 47.8 µM)	>64	>64	–
CC[C@H](C)[C@H](NC(=O)[C@H](CCCCN)NC(=O)[C@H](Cc1c[nH]c2ccccc12)NC(=O)[C@H](CCC(N)=O)NC(=O)CN)C(=O)N[C@@H](CCCNC(=N)N)C(=O)N[C@H](C(=O)N[C@@H](CCCNC(=N)N)C(=O)N[C@@H](CC(C)C)C(=O)N[C@@H](CO)C(=O)N[C@@H](C)C(=O)NCCCC[C@H](NC(=O)[C@H](C)NC(=O)[C@H](CO)NC(=O)[C@H](CC(C)C)NC(=O)[C@H](CCCNC(=N)N)NC(=O)[C@@H](NC(=O)[C@H](CCCNC(=N)N)NC(=O)[C@@H](NC(=O)[C@H](CCCCN)NC(=O)[C@H](Cc1c[nH]c2ccccc12)NC(=O)[C@H](CCC(N)=O)NC(=O)CN)[C@@H](C)CC)C(C)C)C(=O)NCCC(N)=O)C(C)C [ID19, (H-G-Q-W-KIRVRLSA)2-Lys-β-Ala-NH2] (I: H-GQWKIRVRLSAK[βAla]-NH2 / II: H-GQWKIRVRLSA; amide I:12-II:C)	16 (≈ 5.7 µM)	>64	>64	–
CC[C@H](C)[C@H](NC(=O)[C@H](CCCCN)NC(=O)[C@H](CCCCN)NC(=O)[C@H](CCC(N)=O)NC(=O)CN)C(=O)N[C@@H](CCCNC(=N)N)C(=O)N[C@H](C(=O)N[C@@H](CCCNC(=N)N)C(=O)N[C@@H](CC(C)C)C(=O)N[C@@H](CO)C(=O)N[C@@H](C)C(=O)NCCCC[C@H](NC(=O)[C@H](C)NC(=O)[C@H](CO)NC(=O)[C@H](CC(C)C)NC(=O)[C@H](CCCNC(=N)N)NC(=O)[C@@H](NC(=O)[C@H](CCCNC(=N)N)NC(=O)[C@@H](NC(=O)[C@H](CCCCN)NC(=O)[C@H](CCCCN)NC(=O)[C@H](CCC(N)=O)NC(=O)CN)[C@@H](C)CC)C(C)C)C(=O)NCCC(N)=O)C(C)C [ID20, (H-G-QKKIRVRLSA)2-Lys-β-Ala-NH2] (I: H-GQKKIRVRLSAK[βAla]-NH2 / II: H-GQKKIRVRLSA; amide I:12-II:C)	16 to 32	>64	>64	–
CC[C@H](C)[C@H](NC(=O)[C@H](CCCCN)NC(=O)[C@H](CCCCN)NC(=O)[C@H](Cc1c[nH]c2ccccc12)NC(=O)CCCCN)C(=O)N[C@@H](CCCNC(=N)N)C(=O)N[C@H](C(=O)N[C@@H](CCCNC(=N)N)C(=O)N[C@@H](CC(C)C)C(=O)N[C@@H](CO)C(=O)N[C@@H](C)C(=O)NCCCC[C@H](NC(=O)[C@H](C)NC(=O)[C@H](CO)NC(=O)[C@H](CC(C)C)NC(=O)[C@H](CCCNC(=N)N)NC(=O)[C@@H](NC(=O)[C@H](CCCNC(=N)N)NC(=O)[C@@H](NC(=O)[C@H](CCCCN)NC(=O)[C@H](CCCCN)NC(=O)[C@H](Cc1c[nH]c2ccccc12)NC(=O)CCCCN)[C@@H](C)CC)C(C)C)C(=O)NCCC(N)=O)C(C)C [ID21, (H-5-Ava-W-KKIRVRLSA)2-Lys-β-Ala-NH2] (I: H-[Ava]WKKIRVRLSAK[βAla]-NH2 / II: H-[Ava]WKKIRVRLSA; amide I:12-II:C)	8 to 16	64 (≈ 22.1 µM)	64 (≈ 22.1 µM)	–
CC[C@H](C)[C@H](NC(=O)[C@H](CCCCN)NC(=O)[C@H](Cc1c[nH]c2ccccc12)NC(=O)[C@H](CCC(N)=O)NC(=O)CCCCN)C(=O)N[C@@H](CCCNC(=N)N)C(=O)N[C@H](C(=O)N[C@@H](CCCNC(=N)N)C(=O)N[C@@H](CC(C)C)C(=O)N[C@@H](CO)C(=O)N[C@@H](C)C(=O)NCCCC[C@H](NC(=O)[C@H](C)NC(=O)[C@H](CO)NC(=O)[C@H](CC(C)C)NC(=O)[C@H](CCCNC(=N)N)NC(=O)[C@@H](NC(=O)[C@H](CCCNC(=N)N)NC(=O)[C@@H](NC(=O)[C@H](CCCCN)NC(=O)[C@H](Cc1c[nH]c2ccccc12)NC(=O)[C@H](CCC(N)=O)NC(=O)CCCCN)[C@@H](C)CC)C(C)C)C(=O)NCCC(N)=O)C(C)C [ID22, (H-5-Ava-Q-W-KIRVRLSA)2-Lys-β-Ala-NH2] (I: H-[Ava]QWKIRVRLSAK[βAla]-NH2 / II: H-[Ava]QWKIRVRLSA; amide I:12-II:C)	16 (≈ 5.53 µM)	>64	>64	–
CC[C@H](C)[C@H](NC(=O)[C@H](CCCCN)NC(=O)[C@H](CCCCN)NC(=O)[C@H](CCC(N)=O)NC(=O)CCCCCCCN)C(=O)N[C@@H](CCCNC(=N)N)C(=O)N[C@H](C(=O)N[C@@H](CCCNC(=N)N)C(=O)N[C@@H](CC(C)C)C(=O)N[C@@H](CO)C(=O)N[C@@H](C)C(=O)NCCCC[C@H](NC(=O)[C@H](C)NC(=O)[C@H](CO)NC(=O)[C@H](CC(C)C)NC(=O)[C@H](CCCNC(=N)N)NC(=O)[C@@H](NC(=O)[C@H](CCCNC(=N)N)NC(=O)[C@@H](NC(=O)[C@H](CCCCN)NC(=O)[C@H](CCCCN)NC(=O)[C@H](CCC(N)=O)NC(=O)CCCCCCCN)[C@@H](C)CC)C(C)C)C(=O)NCCC(N)=O)C(C)C [ID23, (H-8-Aoa-OKKIRVRLSA)2-Lys-β-Ala-NH2] (I: H-[Aoc]QKKIRVRLSAK[βAla]-NH2 / II: H-[Aoc]QKKIRVRLSA; amide I:12-II:C)	32 (≈ 11.2 µM)	>64	>64	–
H-FKKIRVRLSA-OH [ID2, H-F-KKIRVRLSA-OH]	256	256	512	512
H-GQWKIRVRLSA-OH [ID14, H-G-Q-W-KIRVRLSA-OH]	64	64	>512	>512
H-IKKIRVRLSA-OH [ID3, H-I-KKIRVRLSA-OH]	256	256	512	512
H-LKKIRVRLSA-OH [ID4, H-L-KKIRVRLSA-OH]	256	256	512	>512
H-QFKIRVRLSA-OH [ID8, H-Q-F-KIRVRLSA-OH]	128	128	>512	>512
H-QIKIRVRLSA-OH [ID9, H-Q-I-KIRVRLSA-OH]	512	>512	512	>512
H-QKKIRVRLSA-OH [ID1, H-QKKIRVRLSA-OH, reference compound]	–	>512	>512	–
H-QLKIRVRLSA-OH [ID10, H-Q-L-KIRVRLSA-OH]	128	128	>512	>512
H-QVKIRVRLSA-OH [ID11, H-Q-V-KIRVRLSA-OH]	256	256	>512	>512
H-QWKIRVRLSA-OH [ID12, H-Q-W-KIRVRLSA-OH]	64	64	>512	>512
H-QYKIRVRLSA-OH [ID13, H-Q-Y-KIRVRLSA-OH]	>256	>512	>512	>512
H-VKKIRVRLSA-OH [ID5, H-V-KKIRVRLSA-OH]	512	512	>512	512
H-WKKIRVRLSA-OH [ID6, H-W-KKIRVRLSA-OH]	64 to 128	128	256	512
